This series relates to U2OS, H460, HTB-9, ES2, HCT116, Capan, OVCAR3, DU145, SK-Mel-5, KB, A498, MCF-7, HepG2, T98G, K562, HeLa. In words: MTT Cytotoxic Assay of reaction products and isolated compounds. Format: cell-based. An excerpt:
The peaks, fractions and compounds are selected according to the activities of times studies and the changes of peaks. Selecting the HPLC fractions for isolation is according to the cytotoxic activity of the reaction product obtained at a specific time. The compounds having strong to weak activities are selected and isolated. Selecting the HPLC fractions for isolation may be according to the cytotoxic activity of times studies and the change of peaks. The anti cancer activities are the MTT studies of bone (U2OS), lung (H460), bladder (HTB-9), ovary (ES2), colon (HCT116), pancreas (Capan), ovary (OVCAR3), prostate (DU145), skin (SK-Mel-5), mouth (KB), kidney (A498), breast (MCF-7), liver (HepG2), brain (T98G), luekemia (K562), cervix (HeLa).
Esterification, amidation, amination, or sulfonamidation of compound (A), (B), (C), (D1), (D2), (E), (F), (G), (H1), (H2), E4A, E4A2Y, E4D, E4D1, (P1), P(2), terpene, isoprene, triterpenes, hydroxylated triterpenes, with acyl halide, wherein the halide comprise chloride, bromide, fluoride and iodide, wherein the acyl halide comprise acyl chloride, wherein acyl chloride comprise tigloyl chloride, angeloyl chloride, acetyl chloride, crotonoyl chloride, 3,3-dimethylartyloyl chloride, senecioyl chloride, cinnamoyl chloride, pentenoyl chloride, hexanoyl chloride, benzoyl chloride, ethylbutyryl chloride, propionyl chloride, 2-propenoyl chloride, isobutyryl chloride, butyryl chloride, (2E)-2-pentenoyl chloride, 4-Pentenoyl chloride, 5-hexenoyl chloride, heptanoyl chloride, octanoyl chloride, nonanoyl chloride, decanoyl chloride, Lauroyl chloride, myristoyl chloride, oleoyl chloride. The compounds vary in composition when the time or temperature of the reaction is changed. The peaks, fractions and compounds are selected according to the activities of times studies and the changes of peaks. The compounds having strong to weak activities are selected and isolated. The anti cancer activities (Cytotoxic Assay) are the MTT studies of bone (U2OS), lung (H460), bladder (HTB-9), ovary (ES2), colon (HCT116), pancreas (Capan), ovary (OVCAR3), prostate (DU145), skin (SK-Mel-5), mouth (KB), kidney (A498), breast (MCF-7), liver (HepG2), brain (T98G), luekemia (K562), cervix (HeLa). The active esterification, amidation, amination, or sulfonamidation products are purified with HPLC. The reaction product of mixtures and individual compounds are tested with MTT Cytotoxic Assay. Details of method are in Experiment 3 of the present application. A second esterification of compound can be selected from the above experiment results to produce new active compounds. A partial esterification compound is selected from the above experiments to perform a second or repeated with a third esterification with different acyl chloride in order to produce new active compounds with the experiments in the present application. The active compounds of this invention are triterpenes in form of amine, sulfonamides, amide, and urea analogs, providing extremely stable activity in solution. They prolong the activities and duration of drug in a subject.
Cells. HTB-9 (bladder), HeLa-S3 (cervix), DU145 (prostate), H460 (lung), MCF-7 (breast), K562 (leukemia), HCT116 (colon), HepG2 (liver), U2OS (bone), T98G (brain), SK-MEL-5 (Skin) and OVCAR 3, ES2 (ovary), Pancreas (Capan), Mouth (KB), Kidney (A498).
MTT Assay. The procedure for MTT assay followed the method described by Carmichael et al. (1987) with modifications. The cells were seeded into a 96-well plate at for 24 hours before drug-treatment. The cells were then exposed to the drugs for 48, 72, or 96 hours. After the drug-treatment, MTT (0.5 mg/mL) was added to cultures and incubated for an hour. The formazan (product of the reduction of tetrazolium by viable cells) formed and was dissolved with DMSO and the O.D. at 490 nm, and was measured by an ELISA reader. The MTT level of the cells before drug-treatment was also measured (T0). […]

Each structure is given as a SMILES string.

In the case of `CC=C(C)C(=O)NCC1(C)C(N)CCC2(C)C1CCC1(C)C2CC=C2C3CC(C)(C)C(N)C(N)C3(CNC(=O)C(C)=CC)C(N)CC21C` (centres unmarked) [AA1], the Cytotoxicity activity entry is reported as “moderate”.

In the case of `CC=C(C)C(=O)NCC1(C)C(O)CCC2(C)C1CCC1(C)C2CC=C2C3CC(C)(C)C(O)C(O)C3(CNC(=O)C(C)=CC)C(O)CC21C` (centres unmarked) [AA2], the Cytotoxicity activity result is listed as “strong”. `CC=C(C)C(=O)NCC1(C)C(N)CCC2(C)C1CCC1(C)C2CC=C2C3CC(C)(C)C(NC(=O)C(C)=CC)C(N)C3(CN)C(N)CC21C` (centres unmarked) [AA3]: the Cytotoxicity activity result is listed as “moderate”. Turning to `CC=C(C)C(=O)NCC1(C)C(N)CCC2(C)C1CCC1(C)C2CC=C2C3CC(C)(C)C(NC(=O)C(C)=CC)C(N)C3(CNC(=O)C(C)=CC)C(N)CC21C` (centres unmarked) [AA4], the Cytotoxicity activity entry is on record as “weak”. For `CC(C)=CC(=O)NCC1(C)C(N)CCC2(C)C1CCC1(C)C2CC=C2C3CC(C)(C)C(N)C(N)C3(CNC(=O)C=C(C)C)C(N)CC21C` (centres unmarked) [BB1], the Cytotoxicity activity entry is reported as “moderate”. As for `CC(C)=CC(=O)NCC1(C)C(O)CCC2(C)C1CCC1(C)C2CC=C2C3CC(C)(C)C(O)C(O)C3(CNC(=O)C=C(C)C)C(O)CC21C` (centres unmarked) [BB2], the entry is “strong”. For the molecule `CC(C)=CC(=O)NCC1(C)C(N)CCC2(C)C1CCC1(C)C2CC=C2C3CC(C)(C)C(NC(=O)C=C(C)C)C(N)C3(CN)C(N)CC21C` (centres unmarked) [BB3], the Cytotoxicity activity result is “moderate”. On to `CC(C)=CC(=O)NCC1(C)C(N)CCC2(C)C1CCC1(C)C2CC=C2C3CC(C)(C)C(NC(=O)C=C(C)C)C(N)C3(CNC(=O)C=C(C)C)C(N)CC21C` (centres unmarked) [BB4], for which the Cytotoxicity activity entry is reported as “weak”. In the case of `C=CCCC(=O)NCC1(C)C(N)CCC2(C)C1CCC1(C)C2CC=C2C3CC(C)(C)C(N)C(N)C3(CNC(=O)CCC=C)C(N)CC21C` (centres unmarked) [CC1], the Cytotoxicity activity result is on record as “moderate”. Turning to `C=CCCC(=O)NCC1(C)C(O)CCC2(C)C1CCC1(C)C2CC=C2C3CC(C)(C)C(O)C(O)C3(CNC(=O)CCC=C)C(O)CC21C` (centres unmarked) [CC2], the Cytotoxicity activity result was “strong”. Turning to `C=CCCC(=O)NCC1(C)C(N)CCC2(C)C1CCC1(C)C2CC=C2C3CC(C)(C)C(NC(=O)CCC=C)C(N)C3(CN)C(N)CC21C` (centres unmarked) [CC3], the Cytotoxicity activity result is listed as “moderate”. `C=CCCC(=O)NCC1(C)C(N)CCC2(C)C1CCC1(C)C2CC=C2C3CC(C)(C)C(NC(=O)CCC=C)C(N)C3(CNC(=O)CCC=C)C(N)CC21C` (centres unmarked) [CC4]: the Cytotoxicity activity entry is given as “weak”. As for `CCCCCC(=O)NCC1(C)C(N)CCC2(C)C1CCC1(C)C2CC=C2C3CC(C)(C)C(N)C(N)C3(CNC(=O)CCCCC)C(N)CC21C` (centres unmarked) [DD1], the entry is “moderate”; as for `CCCCCC(=O)NCC1(C)C(O)CCC2(C)C1CCC1(C)C2CC=C2C3CC(C)(C)C(O)C(O)C3(CNC(=O)CCCCC)C(O)CC21C` (centres unmarked) [DD2], “strong”; as for `CCCCCC(=O)NCC1(C)C(N)CCC2(C)C1CCC1(C)C2CC=C2C3CC(C)(C)C(NC(=O)CCCCC)C(N)C3(CN)C(N)CC21C` (centres unmarked) [DD3], “moderate”. Turning to `CCCCCC(=O)NCC1(C)C(N)CCC2(C)C1CCC1(C)C2CC=C2C3CC(C)(C)C(NC(=O)CCCCC)C(N)C3(CNC(=O)CCCCC)C(N)CC21C` (centres unmarked) [DD4], the Cytotoxicity activity entry is recorded as “weak”. `CCC(CC)C(=O)NCC1(C)C(N)CCC2(C)C1CCC1(C)C2CC=C2C3CC(C)(C)C(N)C(N)C3(CNC(=O)C(CC)CC)C(N)CC21C` (centres unmarked) [EE1]: the Cytotoxicity activity result is on record as “moderate”. On to `CCC(CC)C(=O)NCC1(C)C(O)CCC2(C)C1CCC1(C)C2CC=C2C3CC(C)(C)C(O)C(O)C3(CNC(=O)C(CC)CC)C(O)CC21C` (centres unmarked) [EE2], for which the Cytotoxicity activity result is recorded as “strong”. With `CCC(CC)C(=O)NCC1(C)C(N)CCC2(C)C1CCC1(C)C2CC=C2C3CC(C)(C)C(NC(=O)C(CC)CC)C(N)C3(CN)C(N)CC21C` (centres unmarked) [EE3], the Cytotoxicity activity result is recorded as “moderate”. Consider `CCC(CC)C(=O)NCC1(C)C(N)CCC2(C)C1CCC1(C)C2CC=C2C3CC(C)(C)C(NC(=O)C(CC)CC)C(N)C3(CNC(=O)C(CC)CC)C(N)CC21C` (centres unmarked) [EE4], for which the Cytotoxicity activity result is “weak”. On to `CC(=O)NCC1(C)C(N)CCC2(C)C1CCC1(C)C2CC=C2C3CC(C)(C)C(N)C(N)C3(CNC(C)=O)C(N)CC21C` (centres unmarked) [HH1], for which the Cytotoxicity activity entry was “moderate”. Consider `CC(=O)NCC1(C)C(O)CCC2(C)C1CCC1(C)C2CC=C2C3CC(C)(C)C(O)C(O)C3(CNC(C)=O)C(O)CC21C` (centres unmarked) [HH2], for which the Cytotoxicity activity result is recorded as “strong”. `CC(=O)NCC1(C)C(N)CCC2(C)C1CCC1(C)C2CC=C2C3CC(C)(C)C(NC(C)=O)C(N)C3(CN)C(N)CC21C` (centres unmarked) [HH3]: the Cytotoxicity activity result is recorded as “moderate”. As to `CC(=O)NCC1(C)C(N)CCC2(C)C1CCC1(C)C2CC=C2C3CC(C)(C)C(NC(C)=O)C(N)C3(CNC(C)=O)C(N)CC21C` (centres unmarked) [HH4], the Cytotoxicity activity result was “weak”. As for `CC=CC(=O)NCC1(C)C(O)CCC2(C)C1CCC1(C)C2CC=C2C3CC(C)(C)C(O)C(O)C3(CNC(=O)C=CC)C(O)CC21C` (centres unmarked) [I I2], the entry is “strong”; as for `CC=CC(=O)NCC1(C)C(N)CCC2(C)C1CCC1(C)C2CC=C2C3CC(C)(C)C(NC(=O)C=CC)C(N)C3(CN)C(N)CC21C` (centres unmarked) [I I3], “moderate”; as for `CC=CC(=O)NCC1(C)C(N)CCC2(C)C1CCC1(C)C2CC=C2C3CC(C)(C)C(N)C(N)C3(CNC(=O)C=CC)C(N)CC21C` (centres unmarked) [II 1], “moderate”.

As for `CC=CC(=O)NCC1(C)C(N)CCC2(C)C1CCC1(C)C2CC=C2C3CC(C)(C)C(NC(=O)C=CC)C(N)C3(CNC(=O)C=CC)C(N)CC21C` (centres unmarked) [II 4], the Cytotoxicity activity entry is “weak”.

Regarding `CC1(C)CC2C3=CCC4C5(C)CCC(N)C(C)(CNC(=O)C=Cc6ccccc6)C5CCC4(C)C3(C)CC(N)C2(CNC(=O)C=Cc2ccccc2)C(N)C1N` (centres unmarked) [JJ1], the Cytotoxicity activity result is “moderate”. For the molecule `CC1(C)CC2C3=CCC4C5(C)CCC(O)C(C)(CNC(=O)C=Cc6ccccc6)C5CCC4(C)C3(C)CC(O)C2(CNC(=O)C=Cc2ccccc2)C(O)C1O` (centres unmarked) [JJ2], the Cytotoxicity activity result is “strong”. As for `CC1(C)CC2C3=CCC4C5(C)CCC(N)C(C)(CNC(=O)C=Cc6ccccc6)C5CCC4(C)C3(C)CC(N)C2(CN)C(N)C1NC(=O)C=Cc1ccccc1` (centres unmarked) [JJ3], the entry is “moderate”. Regarding `CC1(C)CC2C3=CCC4C5(C)CCC(N)C(C)(CNC(=O)C=Cc6ccccc6)C5CCC4(C)C3(C)CC(N)C2(CNC(=O)C=Cc2ccccc2)C(N)C1NC(=O)C=Cc1ccccc1` (centres unmarked) [JJ4], the Cytotoxicity activity result is listed as “weak”.

`CC1(C)CC2C3=CCC4C5(C)CCC(N)C(C)(CNC(=O)c6ccccc6)C5CCC4(C)C3(C)CC(N)C2(CNC(=O)c2ccccc2)C(N)C1N` (centres unmarked) [KK1]: the Cytotoxicity activity entry is listed as “moderate”. As for `CC1(C)CC2C3=CCC4C5(C)CCC(O)C(C)(CNC(=O)c6ccccc6)C5CCC4(C)C3(C)CC(O)C2(CNC(=O)c2ccccc2)C(O)C1O` (centres unmarked) [KK2], the entry is “strong”. For the molecule `CC1(C)CC2C3=CCC4C5(C)CCC(N)C(C)(CNC(=O)c6ccccc6)C5CCC4(C)C3(C)CC(N)C2(CN)C(N)C1NC(=O)c1ccccc1` (centres unmarked) [KK3], the Cytotoxicity activity result is “moderate”. With `CC1(C)CC2C3=CCC4C5(C)CCC(N)C(C)(CNC(=O)c6ccccc6)C5CCC4(C)C3(C)CC(N)C2(CNC(=O)c2ccccc2)C(N)C1NC(=O)c1ccccc1` (centres unmarked) [KK4], the Cytotoxicity activity entry is listed as “weak”. Take `CCC(=O)NCC1(C)C(N)CCC2(C)C1CCC1(C)C2CC=C2C3CC(C)(C)C(N)C(N)C3(CNC(=O)CC)C(N)CC21C` (centres unmarked) [LL1]: the Cytotoxicity activity entry was “moderate”. On to `CCC(=O)NCC1(C)C(O)CCC2(C)C1CCC1(C)C2CC=C2C3CC(C)(C)C(O)C(O)C3(CNC(=O)CC)C(O)CC21C` (centres unmarked) [LL2], for which the Cytotoxicity activity entry is “strong”.
